The nature of data set [1]: Pharmacokinetic study in mice, plasma levels after single p.o. dose. The format is in vivo. As to conditions: male NMRI mice, p.o. single dose 30 mg/kg as micro-suspension, dose-normalised. On the procedure:
A preferred pharmaceutical preparation was obtained by using the following procedure: • 1. Weigh 4.0 g glass beads in custom made tube GL 25, 4 cm (the beads fill half of the tube). • 2. Add 50 mg compound, disperse with spatulum and vortex. • 3. Add 2 ml gelatin solution (weight beads: gelatin solution=2:1) and vortex. • 4. Cap and wrap in aluminium foil for light protection. • 5. Prepare a counter balance for the mill. • 6. Mill for 4 hours, 20/s in a Retsch mill (for some substances up to 24 hours at 30/s). • 7. Extract suspension from beads with two layers of filter (100 μm) on a filter holder, coupled to a recipient vial by centrifugation at 400 g for 2 min. • 8. Move extract to measuring cylinder. • 9. Repeat washing with small volumes (here 1 ml steps) until final volume is reached or extract is clear. • 10. Fill up to final volume with gelatin and homogenise.
The above described preparation yields micro-suspensions of the compounds of formula I with particle sizes between 1 and 10 μm. The suspensions are suitable for oral applications and were used in the in vivo pharmacokinetic testings described below.
To male NMRI mice of 29–35 g body weight the compounds according to this invention were given p.o. as micro-suspensions (7.5% modified gelatine and 0.22% NaCl) in doses of 30 mg/kg (Drug concentration: 3 mg/mL. Administered volume: 10 mL/kg) and as single dose administration. Study Protocol:
Animals were fasted overnight up to 4 hrs. after administration of the compound. For each single p.o. dose the mice were allocated to 3 groups with 4 animals each. Blood samples are taken from group 1 at 0.5, 3 and 24 hours, from group 2 at 1 and 6 hours, and from group 3 at 2 and 8 hours.
Blood samples of about 200 μl were obtained by retro-orbital puncture. Plasma samples were obtained from heparinized/EDTA blood by centrifugation at room temperature, and stored frozen at −20° C. until analysis.
Plasma was deproteinated and subsequently analysed for plasma levels of the compound by a compound specific HPLC-MS method. WinNonlin™ was used to calculate the pharmacokinetic parameters.

The next data set deals with T1, Lck (p56^lck) (Homo sapiens, UniProt P06239).
T1 construct: purchased Upstate (UBI)
T1 sequence (P06239 whole entry, species assumed): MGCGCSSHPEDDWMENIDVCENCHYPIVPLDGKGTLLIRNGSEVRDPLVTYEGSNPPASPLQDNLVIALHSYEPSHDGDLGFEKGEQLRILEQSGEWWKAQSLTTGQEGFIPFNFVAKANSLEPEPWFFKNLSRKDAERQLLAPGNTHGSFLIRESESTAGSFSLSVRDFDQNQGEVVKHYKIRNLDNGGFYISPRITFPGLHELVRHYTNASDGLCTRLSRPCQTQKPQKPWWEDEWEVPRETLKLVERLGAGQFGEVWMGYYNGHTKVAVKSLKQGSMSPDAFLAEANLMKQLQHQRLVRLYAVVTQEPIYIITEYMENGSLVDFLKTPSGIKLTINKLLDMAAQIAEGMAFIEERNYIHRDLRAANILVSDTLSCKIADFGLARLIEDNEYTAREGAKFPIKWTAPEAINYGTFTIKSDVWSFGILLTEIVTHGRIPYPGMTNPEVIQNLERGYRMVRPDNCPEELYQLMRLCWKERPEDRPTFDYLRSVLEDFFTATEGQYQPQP
The data set is described as follows: SRC-Inhibitor-Assay, time-resolved fluorescence kinase assay (Lck). Conditions: ATP 5 μM, enzyme 2.5 U/ml, pre-incubation 15 min at 15° C. The data set is classed as biochemical. On the procedure: (§1) The activity of the compounds according to this invention as inhibitors for the src-family tyrosine kinases was shown by using the following assay.
(§2) SRC-Inhibitor-Assay Parameters:
(§3) Assay buffer: 4 mM MgCl2 • 2 mM TCEP • 50 mM HEPES • 0,1% Tween 20 • pH 7.3
(§4) Material: Eu-labelled phosphotyrosine antibody:—for Lck Cisbio Mab PT66-K, for Src EG&G Wallac PT66 Eu-W1024 (all commercially available). Peptides: Ro: NH2-A-E-E-E-I-Y-G-E-F-E-A-K-K-K-K-CONH2, and Ja133-Ro: Ja133-G-Aminocaprylic acid-A-E-E-E-I-Y-G-E-F-E-A-K-K-K-K-CONH2, wherein Ja133 is LightCycler-Red 640-N-hydroxy succinimide ester; whereby both peptides were synthesized by an optimized solid phase peptide synthesis protocol (Merrifield, Fed. Proc. Fed. Amer. Soc. Exp. Biol. 21 (1962) 412) on a Zinsser SMP350 peptide synthesizer. Shortly, the peptide was assembled on 160 mg (22.8 μmol scale) of a Rink-Linker modified polystyrene solid phase by repeatedly conjugating an twenty fold excess of amino acids each protected by temporary piperidine labile Fmoc- and permanent acid labile tert-Bu-, BOC— and Otert-Bu-groups depending on the side chain function. The substrate sequence AEEEIYGEFEAKKKK was N-terminal additionally mounted with the spacer amino acids Aminocaprylic acid and Glycin. After cleavage of the N-terminal temporary protecting group the still attached and protected peptide was labeled with a 1.5 fold amount of LightCycler-Red 640-N-hydroxy succinimide ester (purchased by Roche Diagnostics GmbH) and triethylamine. After 3 hrs. the resin was washed with Dimethylformamide and Isopropanol until the eluates of the blue resin got colourless. […] The substrate was finally isolated by a preparative reverse phase HPLC purification. The purification yielded 12.2 mg RP-HPLC single peak pure blue material (lyophilisate). The identity was proven by MALDI mass spectroscopy [2720.0]. Enzymes: Upstate Lck (p56^lck, active), Upstate Src (p60^c-src, partially purified) were purchased from UBI. Time-resolved Fluorescence Assay: Reader: Perkin Elmer, Wallac Viktor 1420-040 multilabel counter; Liquid handling system: Beckman Coulter, Biomek 2000. ATP, Tween 20, HEPES were purchased from Roche Molecular Biochemicals, MgCl2 and MnCl2 were purchased from Merck Eurolab, TCEP was purchased from Pierce, 384 Well low volume fluorescence plates was purchased from Falcon. Assay Description:
(§5) At first the enzyme is pre-incubated for 15 min. at 15° C. in aqueous solution with corresponding amounts of inhibitors according to this invention. Then the phosphorylation reaction is started by adding a reaction mixture, containing ATP, Peptide and PT66, and subsequent shaking. The proceeding of this reaction is immediately monitored using time resolved fluorescence spectroscopy in a suitable well plate reader.
(§6) The IC50-values can be obtained from the reaction rates by using a non-linear curve fit (Excelfit).

The target of a further data set is T2, Src (p60^c-src) (Homo sapiens, UniProt P12931).
T2 construct: purchased Upstate (UBI)
T2 sequence (P12931 whole entry): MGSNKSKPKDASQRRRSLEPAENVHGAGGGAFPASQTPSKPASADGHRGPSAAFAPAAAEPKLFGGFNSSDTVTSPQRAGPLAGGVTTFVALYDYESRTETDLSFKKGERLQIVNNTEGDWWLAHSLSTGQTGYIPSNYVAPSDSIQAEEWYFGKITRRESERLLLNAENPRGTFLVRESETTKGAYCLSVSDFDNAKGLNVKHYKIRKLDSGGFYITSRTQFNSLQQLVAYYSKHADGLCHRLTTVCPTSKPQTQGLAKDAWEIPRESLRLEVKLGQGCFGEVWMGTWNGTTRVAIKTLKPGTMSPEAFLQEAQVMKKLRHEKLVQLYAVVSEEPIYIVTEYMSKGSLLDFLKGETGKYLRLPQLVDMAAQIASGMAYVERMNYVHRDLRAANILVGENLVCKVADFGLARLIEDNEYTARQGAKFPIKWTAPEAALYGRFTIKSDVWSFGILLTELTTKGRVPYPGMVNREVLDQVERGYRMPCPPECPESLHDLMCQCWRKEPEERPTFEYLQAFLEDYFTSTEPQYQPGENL
Put plainly: SRC-Inhibitor-Assay, time-resolved fluorescence kinase assay (Src). The data set is classed as biochemical. As to conditions: ATP 5 μM, enzyme 2.5 U/ml, pre-incubation 15 min at 15° C. On the procedure: as §1, §2, §3, §4, §5, §6

Structures are written as SMILES. Read-outs that look alike come from different tables or passages of the source.

Turning to `CN1C(=O)N(c2ccccc2Br)Cc2cnc(Nc3ccc4c(c3)OCC(CO)O4)nc21` (stereo not drawn) [Example 1, 3-(2-bromo-phenyl)-7-(2-hydroxymethyl-2,3-dihydro-benzo[1,4]dioxin-6-ylamino)-1-methyl-3,4-dihydro-1H-pyrimido[4,5-d]pyrimidin-2-one], the melting point lay in the range of 156 to 158 °C. Further, the “AUC = area under the curve from T = 0 to T = 24 hrs” value (from here on “AUC = area under the curve”) in data set [1] is listed as 379 (h * ng/ml))/(mg/kg). Further, the IC50 at Lck (p56^lck) (read-out: IC 50 (lck)) is 6.3 nM. In addition, the IC50 at Src (p60^c-src) (read-out: IC 50 (src)) was determined as 7.5 nM.
For `CN1C(=O)N(c2ccccc2Br)Cc2cnc(Nc3ccc4c(c3)OC3(CCNCC3)O4)nc21` [Example 7, 3-(2-bromo-phenyl)-3,4-dihydro-7-(spiro[1,3-benzodioxolo-2,4′-piperidine]-5-yl)amino-1-methyl-pyrimido[4,5-d]pyrimidin-2(1H)-one], the “AUC = area under the curve” value in data set [1] is listed as 813 (h * ng/ml))/(mg/kg). Moreover, the IC50 on Lck (p56^lck) (IC 50 (lck)) was found to be 2.4 nM; against Src (p60^c-src) (IC 50 (src)), 2 nM.
Consider `CN1C(=O)CSc2cc(Nc3ncc4c(n3)N(C)C(=O)N(c3c(F)cccc3Br)C4)ccc21` [Example 13-12, 3-(2-bromo-6-fluoro-phenyl)-1-methyl-7-(4-methyl-3-oxo-3,4-dihydro-2H-benzo[1,4]thiazin-7-ylamino)-3,4-dihydro-1H-pyrimido[4,5-d]pyrimidin-2-one], for which the melting point was 145 to 149 °C. The “AUC = area under the curve” value in data set [1] was 592 (h * ng/ml))/(mg/kg). Further, the IC50 at Lck (p56^lck) (read-out: IC 50 (lck)) is 14 nM. Moreover, the IC50 at Src (p60^c-src) (read-out: IC 50 (src)) was determined as 4.2 nM.
`CN1C(=O)N(c2ccccc2Br)Cc2cnc(Nc3ccc4c(c3)OCC(CN3CCCC3)O4)nc21` (stereo not drawn) [Example 13-21, 3-(2-bromo-phenyl)-1-methyl-7-(2-pyrrolidin-1-ylmethyl-2,3-dihydro-benzo[1,4]dioxin-6-ylamino)-3,4-dihydro-1H-pyrimido[4,5-d]pyrimidin-2-one]: the melting point was in the range of 201 to 203 °C. In data set [1], the “AUC = area under the curve” value is 120 (h * ng/ml))/(mg/kg).
`CN1CCS(=O)(=O)c2cc(Nc3ncc4c(n3)N(C)C(=O)N(c3ccccc3Br)C4)ccc21` [Example 13-26, 3-(2-bromo-phenyl)-1-methyl-7-(4-methyl-1,1-dioxo-1,2,3,4-tetrahydro-1lambda*6*-benzo[1,4]thiazin-7-ylamino)-3,4-dihydro-1H-pyrimido[4,5-d]pyrimidin-2-one] gave a melting point of 250 to 251 °C.
As for `CN1C(=O)N(c2c(F)cccc2Br)Cc2cnc(Nc3ccc4c(c3)OC3(CCNCC3)O4)nc21` [Example 13-46, 3-(2-bromo-6-fluoro-phenyl)-3,4-dihydro-7-(spiro[1,3-benzodioxolo-2,4′-piperidine]-5-yl)amino-1-methyl-pyrimido[4,5-d]pyrimidin-2(1H)-one], the melting point lay within 146 to 153 °C. For the same compound, the “AUC = area under the curve” value in data set [1] is reported as 234 (h * ng/ml))/(mg/kg). This compound also showed an IC50 at Lck (p56^lck) (IC 50 (lck)) of 2.6 nM. This compound also yielded an IC50 at Src (p60^c-src) (IC 50 (src)) of 2.3 nM.

As a reminder, the melting point is the temperature of the solid-liquid transition.

These data come from patent publication US7091345B2, “Amino-substituted dihydropyrimido[4,5-D]pyrimidinone derivatives” (Hoffmann-La Roche Inc., priority 2002, dated 2006).
